Numbers after ± are expanded uncertainties.
Experiment: molar heat capacity at constant pressure
Conditions: 100 kPa, Crystal, DSC

## O=C(O)c1cc(O)c(O)c(O)c1 [3,4,5-trihydroxybenzoic acid]
367.15 K
  molar heat capacity at constant pressure: 233.29 ± 11 J/K/mol
368.15 K
  molar heat capacity at constant pressure: 233.91 ± 11 J/K/mol
369.15 K
  molar heat capacity at constant pressure: 234.54 ± 11 J/K/mol
370.15 K
  molar heat capacity at constant pressure: 234.94 ± 11 J/K/mol
371.15 K
  molar heat capacity at constant pressure: 235.6 ± 11 J/K/mol
372.15 K
  molar heat capacity at constant pressure: 236.24 ± 11 J/K/mol
373.15 K
  molar heat capacity at constant pressure: 236.91 ± 11 J/K/mol
374.15 K
  molar heat capacity at constant pressure: 237.55 ± 11 J/K/mol
375.15 K
  molar heat capacity at constant pressure: 238.16 ± 11 J/K/mol
376.15 K
  molar heat capacity at constant pressure: 238.86 ± 11 J/K/mol
377.15 K
  molar heat capacity at constant pressure: 239.45 ± 11 J/K/mol
378.15 K
  molar heat capacity at constant pressure: 240.16 ± 11 J/K/mol
379.15 K
  molar heat capacity at constant pressure: 240.81 ± 11 J/K/mol
380.15 K
  molar heat capacity at constant pressure: 241.44 ± 11 J/K/mol
381.15 K
  molar heat capacity at constant pressure: 242.11 ± 11 J/K/mol
382.15 K
  molar heat capacity at constant pressure: 242.78 ± 11 J/K/mol
383.15 K
  molar heat capacity at constant pressure: 243.42 ± 11 J/K/mol
384.15 K
  molar heat capacity at constant pressure: 244.06 ± 11 J/K/mol
385.15 K
  molar heat capacity at constant pressure: 244.7 ± 11 J/K/mol
386.15 K
  molar heat capacity at constant pressure: 245.37 ± 11 J/K/mol
387.15 K
  molar heat capacity at constant pressure: 246.02 ± 11 J/K/mol
388.15 K
  molar heat capacity at constant pressure: 246.65 ± 11 J/K/mol
389.15 K
  molar heat capacity at constant pressure: 247.32 ± 11 J/K/mol
390.15 K
  molar heat capacity at constant pressure: 248.01 ± 12 J/K/mol
391.15 K
  molar heat capacity at constant pressure: 248.58 ± 12 J/K/mol
392.15 K
  molar heat capacity at constant pressure: 249.14 ± 12 J/K/mol
393.15 K
  molar heat capacity at constant pressure: 249.71 ± 12 J/K/mol
394.15 K
  molar heat capacity at constant pressure: 250.27 ± 12 J/K/mol
395.15 K
  molar heat capacity at constant pressure: 250.84 ± 12 J/K/mol
396.15 K
  molar heat capacity at constant pressure: 251.4 ± 12 J/K/mol
397.15 K
  molar heat capacity at constant pressure: 251.97 ± 12 J/K/mol
398.15 K
  molar heat capacity at constant pressure: 252.44 ± 12 J/K/mol
399.15 K
  molar heat capacity at constant pressure: 253.11 ± 12 J/K/mol
400.15 K
  molar heat capacity at constant pressure: 253.68 ± 12 J/K/mol
401.15 K
  molar heat capacity at constant pressure: 254.24 ± 12 J/K/mol
402.15 K
  molar heat capacity at constant pressure: 254.81 ± 12 J/K/mol
403.15 K
  molar heat capacity at constant pressure: 255.1 ± 12 J/K/mol
404.15 K
  molar heat capacity at constant pressure: 255.93 ± 12 J/K/mol
405.15 K
  molar heat capacity at constant pressure: 256.5 ± 12 J/K/mol
406.15 K
  molar heat capacity at constant pressure: 257.08 ± 12 J/K/mol
407.15 K
  molar heat capacity at constant pressure: 257.65 ± 12 J/K/mol
408.15 K
  molar heat capacity at constant pressure: 258.22 ± 12 J/K/mol
409.15 K
  molar heat capacity at constant pressure: 258.78 ± 12 J/K/mol
410.15 K
  molar heat capacity at constant pressure: 259.34 ± 12 J/K/mol
411.15 K
  molar heat capacity at constant pressure: 259.92 ± 12 J/K/mol
412.15 K
  molar heat capacity at constant pressure: 260.74 ± 12 J/K/mol
413.15 K
  molar heat capacity at constant pressure: 261.25 ± 12 J/K/mol
414.15 K
  molar heat capacity at constant pressure: 261.59 ± 12 J/K/mol
415.15 K
  molar heat capacity at constant pressure: 261.81 ± 12 J/K/mol
416.15 K
  molar heat capacity at constant pressure: 262.27 ± 12 J/K/mol
417.15 K
  molar heat capacity at constant pressure: 262.78 ± 12 J/K/mol
418.15 K
  molar heat capacity at constant pressure: 263.53 ± 12 J/K/mol
419.15 K
  molar heat capacity at constant pressure: 264.31 ± 12 J/K/mol
420.15 K
  molar heat capacity at constant pressure: 265.03 ± 12 J/K/mol
421.15 K
  molar heat capacity at constant pressure: 266.54 ± 12 J/K/mol
422.15 K
  molar heat capacity at constant pressure: 266.57 ± 12 J/K/mol
423.15 K
  molar heat capacity at constant pressure: 267.3 ± 12 J/K/mol
424.15 K
  molar heat capacity at constant pressure: 268.08 ± 12 J/K/mol
425.15 K
  molar heat capacity at constant pressure: 268.84 ± 12 J/K/mol
426.15 K
  molar heat capacity at constant pressure: 269.59 ± 12 J/K/mol
427.15 K
  molar heat capacity at constant pressure: 270.33 ± 13 J/K/mol
428.15 K
  molar heat capacity at constant pressure: 271.11 ± 13 J/K/mol
429.15 K
  molar heat capacity at constant pressure: 271.85 ± 13 J/K/mol
430.15 K
  molar heat capacity at constant pressure: 272.62 ± 13 J/K/mol
431.15 K
  molar heat capacity at constant pressure: 273.38 ± 13 J/K/mol
432.15 K
  molar heat capacity at constant pressure: 274.32 ± 13 J/K/mol
433.15 K
  molar heat capacity at constant pressure: 274.91 ± 13 J/K/mol
434.15 K
  molar heat capacity at constant pressure: 275.59 ± 13 J/K/mol
435.15 K
  molar heat capacity at constant pressure: 275.85 ± 13 J/K/mol
436.15 K
  molar heat capacity at constant pressure: 276.19 ± 13 J/K/mol
437.15 K
  molar heat capacity at constant pressure: 276.7 ± 13 J/K/mol
438.15 K
  molar heat capacity at constant pressure: 277.38 ± 13 J/K/mol
439.15 K
  molar heat capacity at constant pressure: 277.72 ± 13 J/K/mol
440.15 K
  molar heat capacity at constant pressure: 278.23 ± 13 J/K/mol
441.15 K
  molar heat capacity at constant pressure: 278.83 ± 13 J/K/mol
442.15 K
  molar heat capacity at constant pressure: 279.51 ± 13 J/K/mol
443.15 K
  molar heat capacity at constant pressure: 280.61 ± 13 J/K/mol
444.15 K
  molar heat capacity at constant pressure: 280.87 ± 13 J/K/mol
445.15 K
  molar heat capacity at constant pressure: 281.12 ± 13 J/K/mol
446.15 K
  molar heat capacity at constant pressure: 281.63 ± 13 J/K/mol
447.15 K
  molar heat capacity at constant pressure: 282.23 ± 13 J/K/mol
448.15 K
  molar heat capacity at constant pressure: 283.16 ± 13 J/K/mol
449.15 K
  molar heat capacity at constant pressure: 283.84 ± 13 J/K/mol
450.15 K
  molar heat capacity at constant pressure: 284.18 ± 13 J/K/mol
451.15 K
  molar heat capacity at constant pressure: 285.04 ± 13 J/K/mol
452.15 K
  molar heat capacity at constant pressure: 286.14 ± 13 J/K/mol
453.15 K
  molar heat capacity at constant pressure: 286.82 ± 13 J/K/mol
454.15 K
  molar heat capacity at constant pressure: 287.67 ± 13 J/K/mol
455.15 K
  molar heat capacity at constant pressure: 288.44 ± 13 J/K/mol
456.15 K
  molar heat capacity at constant pressure: 289.03 ± 13 J/K/mol
457.15 K
  molar heat capacity at constant pressure: 289.8 ± 13 J/K/mol
458.15 K
  molar heat capacity at constant pressure: 290.56 ± 13 J/K/mol
459.15 K
  molar heat capacity at constant pressure: 291.24 ± 14 J/K/mol
460.15 K
  molar heat capacity at constant pressure: 292.18 ± 14 J/K/mol
461.15 K
  molar heat capacity at constant pressure: 292.86 ± 14 J/K/mol
462.15 K
  molar heat capacity at constant pressure: 293.2 ± 14 J/K/mol
463.15 K
  molar heat capacity at constant pressure: 293.8 ± 14 J/K/mol
464.15 K
  molar heat capacity at constant pressure: 294.99 ± 14 J/K/mol
465.15 K
  molar heat capacity at constant pressure: 295.67 ± 14 J/K/mol
466.15 K
  molar heat capacity at constant pressure: 296.35 ± 14 J/K/mol
467.15 K
  molar heat capacity at constant pressure: 297.03 ± 14 J/K/mol
468.15 K
  molar heat capacity at constant pressure: 297.96 ± 14 J/K/mol
469.15 K
  molar heat capacity at constant pressure: 298.9 ± 14 J/K/mol
470.15 K
  molar heat capacity at constant pressure: 300.18 ± 14 J/K/mol
471.15 K
  molar heat capacity at constant pressure: 301.03 ± 14 J/K/mol
